Measured values published in paper PMC11802874, “The hypolipidemic effect of MI-883, the combined CAR agonist/ PXR antagonist, in diet-induced hypercholesterolemia model” (Nature Communications, 2025).
Values joined by “and” are separate entries in the source; they are usually repeats but may differ in a detail not shown here. Equal entries are not always repeated.

Columns and labels:
[1] = system: humanized PXR-CAR-CYP3A4/3A7 mice, liver; assay: Liver cholesterol, C4 and lathosterol analysis (HFD study); type: in vivo, mouse; parameters: liver total cholesterol (TotCh), individual animals / liver free cholesterol (Free CH), individual animals / liver cholesteryl esters (CE), individual animals / liver C4, individual animals / liver lathosterol, individual animals: unit not given here
Experimental: Cholesterol (Ch, total and free Ch), C4, and lathosterol determination were performed in liver tissue (25–80 mg fresh weight) using GC-MS according to Cohen et al.[67] (detailed protocol in Supplementary, Chapter 14). Internal standard (d7-cholesterol, Sigma Aldrich/Merck) was used. Solid phase extraction[68] and analysis were performed using LC-MS/MS as described previously. Protein quantification was done using DC Protein Assay (Bio-Rad) according to manufacturer instructions (micro assay format). All samples were analyzed for protein content in triplicates and analyzed.
Liver tissue (25-80 mg fresh weight) was diluted 10x with PBS (by weight), cut into small pieces using scissors, and treated with multiple (10-20) short pulses of ultrasound until a smooth homogenate was obtained. This 10% liver sonicate was used in subsequent analyses.
Lathosterol was measured using the same procedure as for free cholesterol with slight modifications: the volume of liver homogenate as well as the injection volume were increased (100 µL and 2 µL, respectively) while the amount of internal standard was reduced to approximately 100 ng. Also, the mixture was sonicated for 10 minutes after adding ethanol.
Liver sonicate (10%) was further diluted 30x (by weight) and 5 µL was analyzed using DC Protein Assay (Bio-Rad) according to manufacturer instructions (microassay format). Bovine serum albumin was used as standard. All samples were analyzed in triplicates.

[2] = system: humanized PXR-CAR-CYP3A4/3A7 mice; assay: Bile acid analysis in plasma, liver and stool (HFD study); type: in vivo, mouse
Experimental: Materials and reagents and sample preparation have been described in our last paper[63] (see Supplementary, Chapter 12). Concentrations of bile acids in plasma, bile, and feces were determined using the UHPLC-MS method. The bile acids separation was conducted on the ACQUITY UPLC I-Class System (Waters, Milford, MA, USA) using a Triart C18 column (50 mm × 2.1 mm ID, 1.9 µm) from YMC, Japan. The column was maintained at 45 °C and was safeguarded by a disposable CrudCatcher in-line filter (Phenomenex, Torrance, CA, USA). The mobile phase flowed at a rate of 0.35 mL/min and consisted of solvent A (0.5 mmol/L ammonium acetate, 0.001% v/v acetic acid in water) and solvent B (0.5 mmol/L ammonium acetate, 0.001% v/v acetic acid in a 3:1 v/v mixture of methanol and acetonitrile). The gradient program followed this sequence. […] This was succeeded by an isocratic washout with 95% (v/v) solvent B from 9.0 to 10.5 min, followed by equilibration with 40% (v/v) solvent B from 10.5 to 12 min. 2 μL of sample were injected into column. Column effluent was monitored with Xevo TQ-XS triple quadrupole detector operated in positive electrospray mode. Further details can be found in the publication by Uher et al.[72].
The processing of the UHPLC-MS data was performed using TargetLynx software (Waters, Milford, MA, USA). The ratio of an analyte’s peak area and the internal standard was evaluated against a calibration curve, and the concentration for each bile acid was calculated. For further data analysis, the concentrations of individual BAs were summed to calculate the concentration of conjugated, unconjugated, 12-OH, non-12-OH, and total bile acids.
To cover a wide concentration range of bile acids, two sets of plasma aliquots were prepared. The first set, with a volume of 10 μL, was diluted tenfold with MilliQ water. The second set, with a volume of 100 μL, was used without dilution, and the subsequent procedure remained identical for both sets. […]

[3] = molecular target: VD (Homo sapiens, UniProt P11473); assay: Luciferase reporter gene assay VD receptor, HepG2
From the text: The luciferase reporter gene assays for FXR, LXRα, LXRβ, THα, GRα, PPARα, PPARδ/β, PPARγ, AhR, VD, ERα, ERβ and mouse Car are described in our recent paper[19]
(§1) Gal4-LBD constructs of tested nuclear receptors have been used together with pGL4.31[luc2P/GAL4UAS/Hygro] luciferase reporter construct and pRL-TK Renilla expression vector (both from Promega, Hercules, USA) in HepG2 cells transfected with Lipofectamine 2000 or 3000 reagents. For GRα and FXR receptors, full-length expression vectors have been used with pGRE-luc or pFXRE-luc luciferase constructs. For the aryl hydrocarbon receptor (AhR), p1A1-luc construct was used with only pRL-TK vector for transfection normalization. A dual reporter assay (Promega, Hercules, USA) was used to analyze both firefly and Renilla luciferase activities.
(§2) Gal4-LBD constructs of tested nuclear receptors have been used together with pGL5-luc luciferase reporter construct and pRL-TK Renilla expression vector in HepG2 cells transfected with Lipofectamine 2000 or 3000 reagents. For GRα and FXR receptors, full-length expression vectors have been used with pGRE-luc or pFXRE-luc luciferase constructs. For the aryl hydrocarbon receptor (AhR), p1A1-luc construct was used with only pRL-TK vector for transfection normalization. […] Bars represent means±S.D. (n=3).

[4] = Mouse plasma protein binding; type: in vitro ADME
From the text: Plasma protein binding, and stability in human and mouse plasma have been tested as previously described.

[5] = molecular target: THα (Homo sapiens, UniProt P10827); assay: Luciferase reporter gene assay THα, HepG2
From the text: as §1, §2

[6] = male mice, MI-883 5 mg/kg 3× per week p.o., unit not given, 5 mg/kg

Sequence of VD (P11473 127-423 limits assumed): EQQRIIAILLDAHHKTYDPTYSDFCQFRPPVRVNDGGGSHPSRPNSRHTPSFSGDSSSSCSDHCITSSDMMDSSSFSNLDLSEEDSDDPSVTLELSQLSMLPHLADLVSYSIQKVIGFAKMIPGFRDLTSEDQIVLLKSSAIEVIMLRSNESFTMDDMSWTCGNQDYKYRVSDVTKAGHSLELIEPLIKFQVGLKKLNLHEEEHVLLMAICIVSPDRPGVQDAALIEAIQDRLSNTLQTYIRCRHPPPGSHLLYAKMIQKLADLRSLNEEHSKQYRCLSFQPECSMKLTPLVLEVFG
Sequence of THα (P10827 163-410 isoform P10827-2 limits assumed): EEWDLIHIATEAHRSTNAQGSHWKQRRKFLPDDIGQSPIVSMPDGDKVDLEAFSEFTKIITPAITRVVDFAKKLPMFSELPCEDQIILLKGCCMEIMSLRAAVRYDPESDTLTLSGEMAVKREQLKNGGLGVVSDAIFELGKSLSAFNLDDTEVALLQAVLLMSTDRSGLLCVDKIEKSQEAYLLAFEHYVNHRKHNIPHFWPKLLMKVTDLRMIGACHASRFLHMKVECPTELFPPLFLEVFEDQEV

## NC(=O)c1cc(Cn2cc(-c3c(-c4ccc(Cl)cc4)nc4cc(F)ccn34)nn2)ccc1Cl [MI-883, 2-chloro-5-((4-(2-(4-chlorophenyl)-7-fluoroimidazo[1,2-a]pyridin-3-yl)-1H-1,2,3-triazol-1-yl)methyl)benzamide]
[1]
  free cholesterol in the liver (per liver protein or LW): significantly decreased
  liver C4 and C4/total cholesterol: did not increase
  liver lathosterol, total cholesterol, cholesteryl esters (CE): did not show significant changes
[1]; [6]
  liver C4, individual animals: 742.5 and 1060.6 and 588.1 and 517.8 and 1677.1 and 810.7 and 1283.7 and 1057.8 and 1099.9
  liver cholesteryl esters (CE), individual animals: 23 and 16.4 and 24.1 and 22.4 and 62.3 and 32.9 and 18.7 and 38.2 and 47.6
  liver free cholesterol (Free CH), individual animals: 40.3 and 36.2 and 35.7 and 37.4 and 37.7 and 32.3 and 38.3 and 39.6 and 40.5
  liver lathosterol, individual animals: 1.57 and 2.018 and 2.101 and 1.895 and 2.439
  liver total cholesterol (TotCh), individual animals: 63.3 and 52.6 and 59.8 and 100 and 65.2 and 57 and 77.8 and 88.1
[2]
  total BA content in the stool after 24 h: significant increase
  total bile acid concentration in plasma and livers: not affected
  βMCA and CDCA in the stool: significant (P < 0.05) increase
[3]
  NRs assays: VDR (relative to ctrl, replicates): 0.7 and 0.81 and 0.9
[4]
  fraction unbound: 0.01
[5]
  NRs assays: TH (GL4-hTRa) (relative to ctrl, replicates): 1.64 and 1.08 and 1.31
